Laboratory results published in patent publication US7018803B2, “Inhibitors of collagen assembly” (Drexel University College of Medicine, priority 1997, dated 2006).
No end group written: not given here.

Experiments:
[1] = biological target: T1, type I collagen (pCcollagen I) (Homo sapiens, UniProt P02452); type: biochemical; conditions: for inhibition of fibril assembly (in words): peptide 2.5 mM
T1 construct: made in house; host or cells: cultured human skin fibroblasts (endogenous procollagen purified from the medium, 14C-labelled)
T1 sequence (P02452 162-1218 limits assumed): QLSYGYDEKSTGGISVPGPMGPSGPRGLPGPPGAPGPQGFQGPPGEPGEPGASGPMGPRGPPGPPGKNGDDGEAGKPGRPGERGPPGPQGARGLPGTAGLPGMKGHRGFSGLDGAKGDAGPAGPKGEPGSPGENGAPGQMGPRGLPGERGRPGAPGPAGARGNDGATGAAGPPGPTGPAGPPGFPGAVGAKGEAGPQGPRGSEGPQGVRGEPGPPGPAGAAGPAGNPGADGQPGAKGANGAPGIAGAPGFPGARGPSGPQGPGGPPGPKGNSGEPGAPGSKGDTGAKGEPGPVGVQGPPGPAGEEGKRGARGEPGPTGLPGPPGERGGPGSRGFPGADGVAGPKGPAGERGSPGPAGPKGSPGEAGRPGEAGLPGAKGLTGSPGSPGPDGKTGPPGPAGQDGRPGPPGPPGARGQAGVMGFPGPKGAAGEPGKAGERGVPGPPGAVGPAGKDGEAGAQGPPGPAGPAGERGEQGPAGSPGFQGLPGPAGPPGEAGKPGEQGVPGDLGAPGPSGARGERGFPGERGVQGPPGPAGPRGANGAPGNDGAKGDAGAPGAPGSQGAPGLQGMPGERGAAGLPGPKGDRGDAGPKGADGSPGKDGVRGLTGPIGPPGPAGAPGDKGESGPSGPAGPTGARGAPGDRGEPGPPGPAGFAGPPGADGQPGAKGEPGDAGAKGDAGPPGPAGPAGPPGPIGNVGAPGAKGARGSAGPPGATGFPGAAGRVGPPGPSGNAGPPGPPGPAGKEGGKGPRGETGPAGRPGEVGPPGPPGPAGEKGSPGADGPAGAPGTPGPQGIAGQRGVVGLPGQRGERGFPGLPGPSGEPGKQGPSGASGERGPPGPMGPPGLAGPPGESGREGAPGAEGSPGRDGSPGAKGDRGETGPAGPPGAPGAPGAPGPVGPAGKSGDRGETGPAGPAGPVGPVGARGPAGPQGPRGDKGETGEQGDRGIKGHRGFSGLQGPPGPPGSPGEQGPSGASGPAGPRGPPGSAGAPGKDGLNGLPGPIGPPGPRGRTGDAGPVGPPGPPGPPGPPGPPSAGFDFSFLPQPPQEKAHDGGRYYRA
T1 sequence (P08123 80-1119 partner limits assumed): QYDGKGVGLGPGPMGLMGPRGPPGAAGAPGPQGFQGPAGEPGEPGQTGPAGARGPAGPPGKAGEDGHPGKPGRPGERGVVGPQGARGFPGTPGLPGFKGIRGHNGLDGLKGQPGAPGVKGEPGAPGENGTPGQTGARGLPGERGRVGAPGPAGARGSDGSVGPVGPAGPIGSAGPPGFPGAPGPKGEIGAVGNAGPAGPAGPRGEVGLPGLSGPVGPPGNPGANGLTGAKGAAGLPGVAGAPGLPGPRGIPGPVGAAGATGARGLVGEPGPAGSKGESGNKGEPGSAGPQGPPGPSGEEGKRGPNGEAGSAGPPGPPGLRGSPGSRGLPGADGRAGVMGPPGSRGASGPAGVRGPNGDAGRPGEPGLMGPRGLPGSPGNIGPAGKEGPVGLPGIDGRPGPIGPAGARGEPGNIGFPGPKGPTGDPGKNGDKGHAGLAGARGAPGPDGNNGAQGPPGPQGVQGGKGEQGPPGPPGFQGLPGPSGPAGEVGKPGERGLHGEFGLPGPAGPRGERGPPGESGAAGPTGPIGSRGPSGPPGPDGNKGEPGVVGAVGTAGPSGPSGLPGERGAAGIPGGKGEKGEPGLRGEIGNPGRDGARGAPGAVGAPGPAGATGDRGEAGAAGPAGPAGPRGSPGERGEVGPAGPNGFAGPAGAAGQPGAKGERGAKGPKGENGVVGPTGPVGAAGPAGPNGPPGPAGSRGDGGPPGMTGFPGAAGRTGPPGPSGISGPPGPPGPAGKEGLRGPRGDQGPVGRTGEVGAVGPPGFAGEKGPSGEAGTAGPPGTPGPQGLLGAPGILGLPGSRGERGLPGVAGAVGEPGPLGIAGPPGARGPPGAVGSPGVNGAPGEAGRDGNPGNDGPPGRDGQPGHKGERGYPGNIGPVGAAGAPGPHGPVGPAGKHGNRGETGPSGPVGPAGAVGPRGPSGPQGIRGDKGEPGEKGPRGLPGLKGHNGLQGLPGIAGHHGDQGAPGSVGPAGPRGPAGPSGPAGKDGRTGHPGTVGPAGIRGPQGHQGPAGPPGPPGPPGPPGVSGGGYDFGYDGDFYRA
Description: Assembly of collagen I into fibrils de novo was assayed under conditions employed previously (Miyahara et al., 1982, J. Biol. Chem. 257:8442–8448; Kadler et al., 1987, J. Biol. Chem. 262:15696–15701; Kadler et al., 1990, Ann. N.Y. Acad. Sci. 580:214–224; Kadler et al., 1990, Biochem. J. 268:339–343; Fertala et al., 1996, J. Biol. Chem. 271:14864–14869). In brief, ^14C-labeled type I procollagen was recovered from the medium of cultured human skin fibroblasts and was purified with two chromatographic steps to homogeneity. The type I procollagen was processed to pccollagen I by cleavage with procollagen N-proteinase purified from organ cultures of chick embryo tendons. “pCcollagen” is a partially processed procollagen which is missing the […]. The pCcollagen was then isolated on a gel filtration column. Fibril assembly was assayed in a […] reaction volume in a […] plastic centrifuge tube sealed with a plunger and containing a physiological bicarbonate buffer, […] pCcollagen I, and 15 units/ml procollagen C-proteinase purified from chick embryo tendons. Potentially inhibitory peptides were added to the reaction mixture to final concentrations of 0.5 to 2.5 mM in […] of buffer. After incubation for 0.5 to 24 hours at 37° C., the sample was centrifuged 13,000×g for 10 min. The pellet and supemate fractions were separated by electrophoresis on a 7.5% polyacrylamide gel in SDS and the gel assayed either with a phosphor storage imager (Molecular Dynamics) or by staining with colloidal Coomassie blue (Brilliant Blue, Sigma) and analysis with a densitometer (Personal Densitometer, Molecular Dynamics). Alternatively, the reaction was carried out in a sealed chamber on a microscopic slide and followed by Dark field light microscopy (Zeiss model 009).
F6 contained sequences that spanned the vertebrate collagenase cleavage site of -Gly-le- in the D4 period of the α1(I) chain. […] The peptides were added in concentrations of 2.5 mM to the system for assaying fibril formation by the cleavage of pCcollagen with C-proteinase (Miyahara et al., 1982, J. Biol. Chem. 257:8442–8448; Kadler et al., 1987, J. Biol. Chem. 262:15696–15701; Kadler et al., 1990, Ann. N.Y. Acad. Sci. 580:214–224; Kadler et al., 1990, Biochem. J. 268:339–343; Fertala et al., 1996, J. Biol. Chem. 271:14864–14869).

[2] = biological target: T2, α1-776/796 (telopeptide binding region of type I collagen) (Homo sapiens, UniProt P02452); assay: Phage display peptide library panning, ligand α1-776/796 peptide in all three cycles; conditions: ligand α1-776/796 x3
T2 construct: host or cells: synthetic peptide
Text: (§1) A comrnmercially-available phage-display peptide library was used to identify peptides that bind to the telopeptide binding region of type I collagen (i.e. amino acid residues 776–797). The library comprised phage particles having about 1.9×10^9 distinct linear peptide sequences.
(§2) For the experiments described in this Example, either type I collagen or a 22-mer synthetic peptide having the amino acid sequence of residues 776–797 of type I collagen was bound to the walls of individual wells of microtiter plates. Aliquots of the phage-display peptide library were added to and incubated with the wells. Thereafter, the microtiter wells were rinsed to remove non-specifically-binding library particles, and specifically-binding library particles were eluted using a solution comprising at least one of: • the 22-mer synthetic peptide having the amino acid sequence of residues 776–797 of type I collagen; • type I collagen; and • glycine HCl buffer having a pH of 2.2.
(§3) Eluted specifically-binding library particles were added to and incubated with microtiter plates having either type I collagen or the 22-mer synthetic peptide bound to the wells thereof, and washing and elution steps were repeated. A total of three cycles of incubation-washing-elution were performed. Following these three cycles, specifically-binding phage particles were isolated, and the amino acid sequence of the peptide encoded by each of these particles was determined by amplifying and sequencing the nucleic acid contained within the particle.
Amino acid sequences of the random peptide region carried by discrete specifically-binding phage particles are indicated in Table II, together with the identity of the ligand bound to the microtiter wells in each of the three incubation-washing-elution cycles. These isolated peptides, or peptides having no more than about fifty, preferably no more than twenty, even more preferably no more than ten, and still more preferably no more than five amino acid residues at one or both ends thereof, may be used to inhibit collagen self-assembly by contacting a collagen molecule such as a collagen triple helix, with one of these peptides.

[3] = biological target: type I collagen (Homo sapiens, UniProt P02452); assay: Phage display peptide library panning, ligand type I collagen in all three cycles; type: binding; conditions: ligand Type I Collagen x3
Sequence of type I collagen (P02452 162-1218 limits assumed): as the sequence (P02452 162-1218 limits assumed) above
Sequence of type I collagen (P08123 80-1119 partner limits assumed): as the sequence (P08123 80-1119 partner limits assumed) above
Text: as §1, §2, §3
Amino acid sequences of the random peptide region carried by discrete specifically-binding phage particles are indicated in Table II, together with the identity of the ligand bound to the microtiter wells in each of the three incubation-washing-elution cycles. […]

[4] = biological target: T3, type I collagen (monomeric collagen, Vitrogen 100) (Bos taurus, UniProt P02453); assay: Competition binding assay on microtiter plates with biotinylated telopeptides
T3 construct: purchased Collagen Biomaterials Vitrogen 100
T3 sequence (P02453 178-1191 limits assumed): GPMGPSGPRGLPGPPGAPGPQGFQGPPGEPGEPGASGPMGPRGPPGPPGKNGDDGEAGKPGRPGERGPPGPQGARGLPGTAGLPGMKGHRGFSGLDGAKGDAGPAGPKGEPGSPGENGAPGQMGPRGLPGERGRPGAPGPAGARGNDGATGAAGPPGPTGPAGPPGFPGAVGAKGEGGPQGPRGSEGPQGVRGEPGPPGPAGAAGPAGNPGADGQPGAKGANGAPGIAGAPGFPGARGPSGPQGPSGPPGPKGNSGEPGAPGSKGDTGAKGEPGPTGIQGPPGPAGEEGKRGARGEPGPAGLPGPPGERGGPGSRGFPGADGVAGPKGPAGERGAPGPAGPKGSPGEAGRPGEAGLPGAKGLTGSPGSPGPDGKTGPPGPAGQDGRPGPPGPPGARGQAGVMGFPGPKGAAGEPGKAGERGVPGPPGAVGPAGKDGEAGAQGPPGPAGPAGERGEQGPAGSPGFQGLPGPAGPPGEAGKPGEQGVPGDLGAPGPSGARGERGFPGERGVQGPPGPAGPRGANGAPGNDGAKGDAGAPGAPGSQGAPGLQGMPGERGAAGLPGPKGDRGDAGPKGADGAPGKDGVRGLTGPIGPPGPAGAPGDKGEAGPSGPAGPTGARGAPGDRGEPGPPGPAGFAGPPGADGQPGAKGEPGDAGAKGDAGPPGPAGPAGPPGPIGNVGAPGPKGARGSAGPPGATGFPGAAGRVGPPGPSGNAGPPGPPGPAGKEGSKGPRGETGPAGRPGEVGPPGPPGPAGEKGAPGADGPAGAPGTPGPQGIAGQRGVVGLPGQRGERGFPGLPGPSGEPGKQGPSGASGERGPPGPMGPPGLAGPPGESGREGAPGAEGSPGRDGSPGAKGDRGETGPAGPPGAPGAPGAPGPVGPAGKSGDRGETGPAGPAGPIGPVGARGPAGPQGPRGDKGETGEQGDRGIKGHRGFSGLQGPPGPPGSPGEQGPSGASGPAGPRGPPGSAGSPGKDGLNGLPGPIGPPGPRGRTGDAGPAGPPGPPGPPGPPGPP
Description: A collagen assembly inhibitory peptide is “biologically active” if it is capable of inhibiting collagen self-assembly in any one of the assays described herein. For example, in a high throughput assay described herein in the description of the data shown in FIGS. 8 and 9, a series of wells in a microtiter plate are coated with monomeric collagen. An amount of HCl is added to each well and the plates are dried. The plates are rinsed in buffer and bovine serum albumin (BSA) is added to block non-specific binding sites on the collagen. Samples containing labeled peptide (for example, biotinylated peptide) which is known to inhibit collagen self-assembly and unlabeled test peptide at various concentrations are premixed and are added to the wells. […] The wells are incubated for a period of time, the plates are washed and streptavidin conjugated to alkaline phosphatase is added. Incubation is continued for a further period of time following which a developing reagent is added to the wells. The amount of binding of the labeled peptide to the collagen is assessed and the degree of inhibition of binding by the test peptide is also assessed. Any test peptide which inhibits binding of the labeled peptide is isolated and is tested further for the ability to inhibit collagen self-assembly in the assays described herein in the description of FIGS. 1, 2 and 3.
To define the telopeptide binding site with a competitive assay, 96-well titiation plates (Immulon 3, Dynatech Laboratories, Inc.) were used. Seventy microliters of the solution containing […] of monomeric collagen (Vitrogen 100, Collagen Biomaterials) in 0.01 N HCl was added to each well, and the plates were dried at room temperature. The plates were rinsed with sterile phosphate buffered saline and non-specific binding sites were blocked with 1% bovine serum albumin. […] As a negative control, peptide α2-218/233 was used at concentrations from […]. […] After 2 hours of incubation, the reaction was measured with microtiter plate reader (Dynatech Laboratories) using a 405 nanometer filter. […]

With GGGSDSGSD [F7/B] the “inhibition of fibril assembly (in words)” value [1] was “abolished inhibitory effects”.
With “SHALPLTWSTAA (Phage Display Library Peptide)” the “# of Isolated Particles Having this Sequence” value ([2]; eluent α1-776/796) was 1 and the “# of Isolated Particles Having this Sequence” value ([3]; eluent α1-776/796) was 10.
For GYDFGYDGDF [Peptide F9], the “inhibition of fibril assembly (in words)” value [1] was “Smaller effects”.
For GGGYDFGYD [Peptide F7], the “inhibition of fibril assembly (in words)” value [1] was “equally effective as the intact F3”.
For QLSYGYDEKSTGGISVP [Peptide F4], the “inhibition of fibril assembly (in words)” value [1] was “almost completely inhibited”.
With AKGAAGLPGVAGAPGL [Peptide F1] the “competition for the binding site with biotinylated telopeptides” value ([4]; negative control, 10 to 500 mM) was “no competition” and the “inhibition of fibril assembly (in words)” value [1] was “little if any inhibition”.
GGGYSFGYS [F7/A] was tested, and the “inhibition of fibril assembly (in words)” value [1] was “no effect on inhibition of fibril assembly”.
In the case of GGGYDFGYDGDFYRA [Peptide F3], the “effect on fibril formation when added during the lag period” value ([1]; 2.5 mM added during the lag phase) is reported as “inhibited fibril formation”, the “effect on fibril assembly when added during the mid-propagation phase” value ([1]; 2.5 mM added during the mid-propagation phase) is reported as “little of any effect” and the “appearance of fibrils by Dark field light microscopy” value ([1]; 2.5 mM, sealed chamber, 37° C., 24 hours) is reported as “No fibrils appeared”. For the same substance, the “effect on fibril assembly if added at or before the first one-third of the lag phase” value ([1]; added at or before the first one-third of the lag phase) was “completely prevented fibril assembly”, the “effect on fibril assembly if added after the first one-third of the lag phase” value ([1]; added thereafter) was “much less effect” and the “inhibition of fibril assembly (in words)” value [1] was “almost completely inhibited”.
“YGSPHPSRPPGA (Phage Display Library Peptide)” was tested, and the “# of Isolated Particles Having this Sequence” value ([2]; eluent Type I Collagen) was 10 and the “# of Isolated Particles Having this Sequence” value ([2]; eluent α1-776/796) was 1→.
With “QLLEPVNLSTGP (Phage Display Library Peptide)” the “# of Isolated Particles Having this Sequence” value ([2]; eluent α1-776/796) was 7.
With “LLPHSVSIPPDA (Phage Display Library Peptide)” the “# of Isolated Particles Having this Sequence” value ([3]; eluent Type I Collagen) was 10.
For DFRYRA [Peptide F10, DFRYRA], the “inhibition of fibril assembly (in words)” value [1] was “Smaller effects”.
For “α1-776/797: peptide with the sequence of the amino acids in positions 776 to 797 of the α1(I) chain (IAGQRGVVGLPGQRGERGFPGL)”, the “competition with binding of biotinylated C-telopeptide of the α1(I) chain (peptide F2) to type I collagen” value ([4]; 50 mM biotinylated F2, 10 to 500 mM competitor, 25° C., 12 h) was “effectively competed” and the “competition with binding of biotinylated C-telopeptide of the α2(I) chain (peptide F3) to type I collagen” value ([4]; 50 mM biotinylated F3, 10 to 500 mM competitor, 25° C., 12 h) was “effectively competed”.
In the case of “VHWWIPVSTGTA (Phage Display Library Peptide)”, the “# of Isolated Particles Having this Sequence” value ([2]; eluent pH 2.2 buffer) is reported as 6→.
For “TFWHLTPPRGYY (Phage Display Library Peptide)”, the “# of Isolated Particles Having this Sequence” value ([2]; eluent pH 2.2 buffer) was 3→.
ADGPAGAPGTPGPQGIAGQRGVVGL [Peptide F6] was tested, and the “inhibition of fibril assembly (in words)” value [1] was “little if any inhibition”.
For “LIQPPRYSTTVS (Phage Display Library Peptide)”, the “# of Isolated Particles Having this Sequence” value ([3]; eluent pH 2.2 buffer) was 10.
“YGAGFDDGDYGYRYG [SC/F3, peptide having the same amino acid residues as F3, but in a scrambled order, reference compound]” was tested, and the “inhibition of fibril assembly (in words)” value [1] was “no effect”.
GYDGDFYRA [Peptide F8] was tested, and the “inhibition of fibril assembly (in words)” value [1] was “equally effective as the intact F3”.
